According to ChEMBL document CHEMBL3400125, “Discovery of novel 2-(alkylmorpholin-4-yl)-6-(3-fluoropyridin-4-yl)-pyrimidin-4(3H)-ones as orally-active GSK-3β inhibitors for Alzheimer's disease” (Bioorg Med Chem Lett, 2015):
pIC50: −log10 of the molar value.

Assays:
[1] = target: Glycogen synthase kinase-3 beta (Homo sapiens, UniProt P49841); experiment: Inhibition of human recombinant GSK3beta assessed as inhibition of [gamma32P]ATP after 1 hr by liquid scintillation counting in presence of prephosphorylated GS1 peptide
[2] = target: Cytochrome P450 3A4 (Homo sapiens, UniProt P08684); experiment: Inhibition of recombinant human CYP3A4; format: ADME
[3] = target: T1, Cytochrome P450 1A2 (Homo sapiens, UniProt P05177); experiment: Inhibition of recombinant human CYP1A2; format: ADME
T1 sequence (P05177 whole entry): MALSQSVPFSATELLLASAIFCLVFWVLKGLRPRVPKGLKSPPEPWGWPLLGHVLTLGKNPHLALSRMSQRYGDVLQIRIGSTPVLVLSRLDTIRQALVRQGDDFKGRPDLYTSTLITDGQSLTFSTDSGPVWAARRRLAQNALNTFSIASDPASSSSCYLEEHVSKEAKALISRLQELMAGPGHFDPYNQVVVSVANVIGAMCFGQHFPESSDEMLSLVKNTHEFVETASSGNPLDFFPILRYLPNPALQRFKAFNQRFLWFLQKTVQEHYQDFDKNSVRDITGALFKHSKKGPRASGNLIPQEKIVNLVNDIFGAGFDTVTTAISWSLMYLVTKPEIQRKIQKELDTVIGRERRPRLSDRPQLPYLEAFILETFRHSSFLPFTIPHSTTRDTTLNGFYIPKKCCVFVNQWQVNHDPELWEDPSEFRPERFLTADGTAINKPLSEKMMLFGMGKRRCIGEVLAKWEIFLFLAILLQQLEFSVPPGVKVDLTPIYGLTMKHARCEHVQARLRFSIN

[4] = target: Cytochrome P450 2D6 (Homo sapiens, UniProt P10635); experiment: Inhibition of recombinant human CYP2D6; format: ADME
[5] = Intrinsic clearance in human liver microsomes; format: ADME
[6] = Permeability across human Caco2 cells; format: ADME, cell-based; settings: Caco-2, read-out: permeability
[7] = test system: Mus musculus; experiment: Inhibition of GSK3beta-mediated tau phosphorylation at Ser396 residue in po dosed CD-1 mouse measured 1 hr post dose; format: functional; settings: CD-1, po

Chain of Cytochrome P450 2D6 (P10635 whole entry): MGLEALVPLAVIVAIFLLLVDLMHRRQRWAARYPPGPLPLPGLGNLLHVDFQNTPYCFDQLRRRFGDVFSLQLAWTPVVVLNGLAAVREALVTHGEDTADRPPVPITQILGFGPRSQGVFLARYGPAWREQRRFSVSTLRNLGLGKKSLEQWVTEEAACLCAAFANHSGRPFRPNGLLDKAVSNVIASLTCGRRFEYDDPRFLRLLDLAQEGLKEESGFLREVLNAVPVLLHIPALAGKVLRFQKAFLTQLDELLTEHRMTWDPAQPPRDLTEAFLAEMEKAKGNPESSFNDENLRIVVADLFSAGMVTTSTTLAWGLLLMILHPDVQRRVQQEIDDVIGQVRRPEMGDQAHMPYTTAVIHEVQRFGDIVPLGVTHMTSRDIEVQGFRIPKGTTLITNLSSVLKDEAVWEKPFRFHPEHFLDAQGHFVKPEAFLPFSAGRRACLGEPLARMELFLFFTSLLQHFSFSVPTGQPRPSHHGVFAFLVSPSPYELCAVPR
Chain of Cytochrome P450 3A4 (P08684 whole entry): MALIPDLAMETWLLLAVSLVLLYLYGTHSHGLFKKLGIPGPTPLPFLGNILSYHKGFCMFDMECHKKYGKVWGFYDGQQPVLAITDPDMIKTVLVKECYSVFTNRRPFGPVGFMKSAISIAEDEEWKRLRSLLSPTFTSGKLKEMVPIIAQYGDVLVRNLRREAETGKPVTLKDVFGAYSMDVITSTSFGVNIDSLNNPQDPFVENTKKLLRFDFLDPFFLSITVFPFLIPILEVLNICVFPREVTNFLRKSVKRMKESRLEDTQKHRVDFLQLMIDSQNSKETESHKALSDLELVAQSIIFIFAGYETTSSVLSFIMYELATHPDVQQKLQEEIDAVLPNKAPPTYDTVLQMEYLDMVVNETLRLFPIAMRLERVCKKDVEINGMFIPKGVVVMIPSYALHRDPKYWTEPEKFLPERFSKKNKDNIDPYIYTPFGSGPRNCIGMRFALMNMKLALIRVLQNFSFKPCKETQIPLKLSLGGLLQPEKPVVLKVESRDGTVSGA
Chain of Glycogen synthase kinase-3 beta (P49841 whole entry): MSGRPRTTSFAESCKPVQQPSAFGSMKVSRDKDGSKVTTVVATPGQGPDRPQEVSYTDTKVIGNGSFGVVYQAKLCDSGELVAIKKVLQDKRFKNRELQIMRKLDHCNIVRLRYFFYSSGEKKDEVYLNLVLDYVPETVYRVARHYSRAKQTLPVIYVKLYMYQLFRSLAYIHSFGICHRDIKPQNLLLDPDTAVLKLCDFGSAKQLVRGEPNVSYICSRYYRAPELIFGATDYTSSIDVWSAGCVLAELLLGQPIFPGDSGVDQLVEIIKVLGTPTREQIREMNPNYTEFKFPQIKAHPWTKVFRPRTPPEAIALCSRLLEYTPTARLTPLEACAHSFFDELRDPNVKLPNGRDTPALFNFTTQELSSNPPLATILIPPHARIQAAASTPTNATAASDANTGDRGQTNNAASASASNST

Question: With Cn1c(N2CCOC(C3CCC3)C2)nc(-c2ccncc2F)cc1=O (racemic) as the molecule, how does the pIC50 [1] read?
Answer: 7.92

Question: What about the pIC50 [2] of the same molecule?
Answer: < 4.30

Question: And the pIC50 [3]?
Answer: 5.82

Question: And the pIC50 [4]?
Answer: 4.42

Question: What about the CLint scaled [5] of the same molecule?
Answer: 0.2 mL/min/mg

Question: With C[C@@H]1OCCN(c2nc(-c3ccncc3F)cc(=O)n2C)[C@H]1C as the molecule, how does the pIC50 [1] read?
Answer: 7.72

Question: With C[C@@H]1[C@@H](C)OCCN1c1nc(-c2ccncc2F)cc(=O)n1C as the molecule, how does the pIC50 [1] read?
Answer: 8.31

Question: And the Papp [6]?
Answer: 48.5 ×10⁻⁶ cm/s

Question: And the pIC50 [2]?
Answer: < 4.30

Question: What about the pIC50 [3] of the same molecule?
Answer: 4.80

Question: And the pIC50 [4]?
Answer: < 4.30

Question: With Cn1c(N2CCO[C@H]3CCC[C@@H]32)nc(-c2ccncc2F)cc1=O as the molecule, how does the pIC50 [1] read?
Answer: 7.46

Question: With C[C@H]1COCCN1c1nc(-c2ccncc2F)cc(=O)n1C as the molecule, how does the pIC50 [1] read?
Answer: 7.64

Question: And the pIC50 [2]?
Answer: < 4.30

Question: And the pIC50 [3]?
Answer: 5.24

Question: What about the pIC50 [4] of the same molecule?
Answer: < 4.30

Question: What about the CLint scaled [5] of the same molecule?
Answer: 0.02 mL/min/mg

Question: With CC1N(c2nc(-c3ccncc3F)cc(=O)n2C)CCOC1(C)C (racemic) as the molecule, how does the pIC50 [1] read?
Answer: 8.01

Question: With C[C@@H]1CO[C@@H](C)CN1c1nc(-c2ccncc2F)cc(=O)n1C as the molecule, how does the pIC50 [1] read?
Answer: 7.39

Question: With C[C@@H]1OCCN(c2nc(-c3ccncc3F)cc(=O)n2C)[C@@H]1C (stereo in doubt; 14) as the molecule, how does the pIC50 [1] read?
Answer: 7.49

Question: What does the source list for Cn1c(N2CCO[C@@H]3COC[C@H]32)nc(-c2ccncc2F)cc1=O?
Answer: pIC50 [1]: 8.51; Papp [6]: 54.5 ×10⁻⁶ cm/s; pIC50 [2]: < 4.30; pIC50 [3]: < 4.30; pIC50 [4]: < 4.30; CLint scaled [5]: 0.02 mL/min/mg

Question: With C[C@@H]1COCCN1c1nc(-c2ccncc2F)cc(=O)n1C as the molecule, how does the pIC50 [1] read?
Answer: 8.15

Question: What about the ED50 [7] of the same molecule?
Answer: 6.8 mg/kg

Question: And the Papp [6]?
Answer: 54.6 ×10⁻⁶ cm/s

Question: What about the pIC50 [2] of the same molecule?
Answer: < 4.30

Question: What about the pIC50 [3] of the same molecule?
Answer: 4.73

Question: And the pIC50 [4]?
Answer: < 4.30

Question: And the CLint scaled [5]?
Answer: 0.03 mL/min/mg

Question: What does the source list for Cn1c(N2CCO[C@@H]3CCCC[C@H]32)nc(-c2ccncc2F)cc1=O?
Answer: pIC50 [1]: 8.43; Papp [6]: 41.8 ×10⁻⁶ cm/s; pIC50 [2]: < 4.30; pIC50 [3]: 4.85; pIC50 [4]: < 4.30; CLint scaled [5]: 0.2 mL/min/mg

Question: What does the source list for CC(C)C1CN(c2nc(-c3ccncc3F)cc(=O)n2C)CCO1 (racemic)?
Answer: pIC50 [1]: 7.77; pIC50 [2]: < 4.30; pIC50 [3]: 5.48; pIC50 [4]: < 4.30; CLint scaled [5]: 0.07 mL/min/mg

Question: With CC(C)[C@@H]1COCCN1c1nc(-c2ccncc2F)cc(=O)n1C as the molecule, how does the pIC50 [1] read?
Answer: 7.85

Question: What does the source list for Cn1c(N2CCO[C@@H]3CCC[C@H]32)nc(-c2ccncc2F)cc1=O?
Answer: pIC50 [1]: 8.38; Papp [6]: 44.5 ×10⁻⁶ cm/s; pIC50 [2]: < 4.30; pIC50 [3]: 4.68; pIC50 [4]: < 4.30; CLint scaled [5]: 0.04 mL/min/mg

Question: With Cn1c(N2CCOCC2)nc(-c2ccncc2F)cc1=O as the molecule, how does the pIC50 [1] read?
Answer: 7.17

Question: With C[C@@H]1CN(c2nc(-c3ccncc3F)cc(=O)n2C)[C@H](C)CO1 as the molecule, how does the pIC50 [1] read?
Answer: 6.34

Question: With CC[C@@H]1COCCN1c1nc(-c2ccncc2F)cc(=O)n1C as the molecule, how does the pIC50 [1] read?
Answer: 7.72

Question: What does the source list for Cn1c(N2CCO[C@@H](c3ccc(F)cc3)C2)nc(-c2ccncn2)cc1=O?
Answer: pIC50 [2]: < 4.30; CLint scaled [5]: 0.06 mL/min/mg

Question: With CCCCC1CN(c2nc(-c3ccncc3F)cc(=O)n2C)CCO1 (racemic) as the molecule, how does the pIC50 [1] read?
Answer: 7.92

Question: What about the pIC50 [2] of the same molecule?
Answer: < 4.30

Question: What about the pIC50 [3] of the same molecule?
Answer: 5.12

Question: What about the pIC50 [4] of the same molecule?
Answer: 5.64

Question: What about the CLint scaled [5] of the same molecule?
Answer: 0.21 mL/min/mg

Question: With CC[C@H]1COCCN1c1nc(-c2ccncc2F)cc(=O)n1C as the molecule, how does the pIC50 [1] read?
Answer: 7.52

Question: With C[C@@H]1OCCN(c2nc(-c3ccncc3F)cc(=O)n2C)[C@@H]1C (stereo in doubt; 13) as the molecule, how does the pIC50 [1] read?
Answer: 7.80
